Data as given in patent US12570650B2, “6-substituted pyridazine compounds as SMARCA2 and/or SMARCA4 degraders” (Aurigene Oncology Limited, priority 2020, dated 2026).

Legend:
Format in all cases: cell-based
SMARCA2 = biological target: T1, SMARCA2 (Homo sapiens, UniProt P51531); experiment: SMARCA2 degradation in VCaP cells by Western blot; details: 16 hours
T1 construct: Determination of SMARCA2 and SMARCA4 Degradation in VCaP Cells by Western Blot; endogenous in cells; host or cells: VCaP (ATCC CRL-2876)
T1 sequence (P51531 whole entry): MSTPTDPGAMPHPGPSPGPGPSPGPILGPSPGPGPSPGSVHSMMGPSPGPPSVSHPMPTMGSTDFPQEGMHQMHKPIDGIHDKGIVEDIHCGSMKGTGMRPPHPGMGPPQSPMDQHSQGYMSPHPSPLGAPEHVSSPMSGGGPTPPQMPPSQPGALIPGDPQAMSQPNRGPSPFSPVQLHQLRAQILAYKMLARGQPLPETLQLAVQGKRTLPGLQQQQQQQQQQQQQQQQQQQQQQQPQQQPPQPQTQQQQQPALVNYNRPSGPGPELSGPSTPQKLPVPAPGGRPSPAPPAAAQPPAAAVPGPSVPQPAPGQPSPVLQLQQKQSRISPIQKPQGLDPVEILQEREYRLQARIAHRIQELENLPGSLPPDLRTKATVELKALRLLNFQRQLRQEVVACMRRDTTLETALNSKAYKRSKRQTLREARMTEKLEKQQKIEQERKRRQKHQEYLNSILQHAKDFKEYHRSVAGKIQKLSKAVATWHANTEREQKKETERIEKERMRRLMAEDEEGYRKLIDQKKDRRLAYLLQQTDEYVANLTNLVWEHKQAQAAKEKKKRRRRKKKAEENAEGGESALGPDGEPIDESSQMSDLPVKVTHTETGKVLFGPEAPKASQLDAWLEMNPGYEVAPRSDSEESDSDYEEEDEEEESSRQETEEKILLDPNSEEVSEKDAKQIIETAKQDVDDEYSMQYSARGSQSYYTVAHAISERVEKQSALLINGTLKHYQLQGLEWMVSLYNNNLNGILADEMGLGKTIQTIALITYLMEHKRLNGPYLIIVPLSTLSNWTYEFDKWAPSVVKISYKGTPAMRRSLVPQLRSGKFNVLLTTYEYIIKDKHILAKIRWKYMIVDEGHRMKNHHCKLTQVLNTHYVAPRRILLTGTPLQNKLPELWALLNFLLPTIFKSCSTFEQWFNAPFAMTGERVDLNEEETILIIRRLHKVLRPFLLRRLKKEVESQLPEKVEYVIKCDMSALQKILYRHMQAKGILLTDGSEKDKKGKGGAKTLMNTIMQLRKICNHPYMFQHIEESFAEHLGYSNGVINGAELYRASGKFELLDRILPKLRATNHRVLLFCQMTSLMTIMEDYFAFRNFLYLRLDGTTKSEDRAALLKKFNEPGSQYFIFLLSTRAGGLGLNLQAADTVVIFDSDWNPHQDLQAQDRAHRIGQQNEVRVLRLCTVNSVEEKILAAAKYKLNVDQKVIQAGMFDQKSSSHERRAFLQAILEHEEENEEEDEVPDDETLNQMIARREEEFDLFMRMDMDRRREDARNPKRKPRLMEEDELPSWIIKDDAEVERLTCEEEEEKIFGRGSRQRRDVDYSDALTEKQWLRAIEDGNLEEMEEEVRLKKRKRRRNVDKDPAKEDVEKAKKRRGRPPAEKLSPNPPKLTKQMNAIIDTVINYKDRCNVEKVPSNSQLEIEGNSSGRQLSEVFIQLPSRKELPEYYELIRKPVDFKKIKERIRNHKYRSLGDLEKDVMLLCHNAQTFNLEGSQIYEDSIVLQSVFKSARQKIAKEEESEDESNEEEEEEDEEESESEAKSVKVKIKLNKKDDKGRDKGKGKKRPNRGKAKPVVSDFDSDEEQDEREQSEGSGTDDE
Procedure: Example-P2: Determination of SMARCA2 and SMARCA4 Degradation in VCaP Cells by Western Blot
VCaP (ATCC CRL-2876) was plated in 6 well plates using complete Dulbecco's Modified Eagle's Medium. On the third day, compounds of present invention were added to cells from 10 mM stocks made in DMSO (Sigma Cat no. D2650). Each concentration of compound was tested with DMSO not exceeding final percentage of 0.3 in the cells. Cells were incubated with the compound for 16 hours followed by harvesting with 1×RIPA lysis buffer (Thermo Fischer, catalogue number #89900) containing protease inhibitor cocktail (Sigma catalogue number #P-8340). Equal amount of protein was loaded on SDS PAGE gel for electrophoresis. Western blot was carried out for detection of either SMARCA2 (Cell signalling technologies, catalogue number #11966) or SMARCA4 antibody (Cell signalling technologies, catalogue number #52251). Beta-Tubulin antibody (Cell signalling technologies, catalogue number #86298) was used as loading control. Percentage of SMARCA2 or SMARCA4 degradation was calculated using formula % Degradation=100−(normalized band intensity in treated sample/normalized band intensity in DMSO sample)*100.

SMARCA4 = biological target: T2, SMARCA4 (Homo sapiens, UniProt P51532); experiment: SMARCA4 degradation in VCaP cells by Western blot; details: 16 hours
T2 construct: Determination of SMARCA2 and SMARCA4 Degradation in VCaP Cells by Western Blot; endogenous in cells; host or cells: VCaP (ATCC CRL-2876)
T2 sequence (P51532 whole entry): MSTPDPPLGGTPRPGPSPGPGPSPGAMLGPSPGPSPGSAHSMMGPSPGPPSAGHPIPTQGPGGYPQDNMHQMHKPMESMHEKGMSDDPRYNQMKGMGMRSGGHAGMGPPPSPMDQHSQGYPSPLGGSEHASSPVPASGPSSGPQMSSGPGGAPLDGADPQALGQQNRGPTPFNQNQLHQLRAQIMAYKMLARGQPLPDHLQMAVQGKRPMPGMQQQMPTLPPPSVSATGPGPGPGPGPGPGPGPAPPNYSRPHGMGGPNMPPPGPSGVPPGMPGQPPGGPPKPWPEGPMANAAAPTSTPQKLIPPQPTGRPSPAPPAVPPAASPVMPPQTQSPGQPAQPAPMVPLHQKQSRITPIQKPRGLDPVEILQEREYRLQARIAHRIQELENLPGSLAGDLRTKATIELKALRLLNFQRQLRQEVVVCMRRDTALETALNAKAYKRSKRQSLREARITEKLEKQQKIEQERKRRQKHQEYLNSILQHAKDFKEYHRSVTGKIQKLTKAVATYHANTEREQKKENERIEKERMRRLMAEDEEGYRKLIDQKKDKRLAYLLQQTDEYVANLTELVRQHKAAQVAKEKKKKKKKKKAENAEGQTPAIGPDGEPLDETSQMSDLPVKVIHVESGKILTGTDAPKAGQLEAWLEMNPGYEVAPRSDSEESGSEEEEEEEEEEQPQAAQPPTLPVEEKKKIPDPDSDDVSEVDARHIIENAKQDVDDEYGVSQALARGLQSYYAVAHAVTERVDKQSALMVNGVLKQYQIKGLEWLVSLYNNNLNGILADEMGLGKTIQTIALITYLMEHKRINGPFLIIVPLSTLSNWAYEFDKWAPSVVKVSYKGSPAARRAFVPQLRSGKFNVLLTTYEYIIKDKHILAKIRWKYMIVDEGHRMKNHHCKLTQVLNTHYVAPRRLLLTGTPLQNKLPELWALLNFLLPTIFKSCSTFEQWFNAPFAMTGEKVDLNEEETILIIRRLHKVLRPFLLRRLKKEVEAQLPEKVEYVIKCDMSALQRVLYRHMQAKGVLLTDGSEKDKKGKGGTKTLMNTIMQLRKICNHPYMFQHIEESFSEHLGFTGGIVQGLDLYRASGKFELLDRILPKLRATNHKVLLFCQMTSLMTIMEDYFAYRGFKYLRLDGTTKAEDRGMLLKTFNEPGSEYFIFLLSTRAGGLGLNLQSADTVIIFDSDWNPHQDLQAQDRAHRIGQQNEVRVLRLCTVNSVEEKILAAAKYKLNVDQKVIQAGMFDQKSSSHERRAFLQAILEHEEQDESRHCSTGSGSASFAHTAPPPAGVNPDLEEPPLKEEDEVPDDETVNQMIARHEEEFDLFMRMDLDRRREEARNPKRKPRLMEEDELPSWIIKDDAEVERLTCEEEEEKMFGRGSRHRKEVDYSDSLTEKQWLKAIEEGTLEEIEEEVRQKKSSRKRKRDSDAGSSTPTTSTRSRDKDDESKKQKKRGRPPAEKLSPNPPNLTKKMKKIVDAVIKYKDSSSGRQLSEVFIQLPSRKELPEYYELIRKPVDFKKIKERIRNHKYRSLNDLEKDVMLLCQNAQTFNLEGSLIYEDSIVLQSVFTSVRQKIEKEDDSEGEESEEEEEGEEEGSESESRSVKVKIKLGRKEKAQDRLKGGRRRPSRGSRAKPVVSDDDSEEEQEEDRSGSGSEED
Procedure: On the third day, compounds of present invention were added to cells from 10 mM stocks made in DMSO (Sigma Cat no. D2650). Each concentration of compound was tested with DMSO not exceeding final percentage of 0.3 in the cells. […] Equal amount of protein was loaded on SDS PAGE gel for electrophoresis. […] Percentage of SMARCA2 or SMARCA4 degradation was calculated using formula % Degradation=100−(normalized band intensity in treated sample/normalized band intensity in DMSO sample)*100.

SK-MEL-5 cells = experiment: Anti proliferative activity, Cell Titer Glo assay, SK-MEL-5; details: Homo sapiens, retreatment Day 4, terminated day 8, CellTiter-Glo
Procedure: Example-P3: Determination of Anti Proliferative Activity of Compounds by Cell Titer Glo®(Promega) Assay
Cells were seeded into 96-well plates and the plate was incubated in 37 degrees incubator overnight. The next day, compounds were diluted 3-fold to cover 9-point concentration range in DMSO. Intermediate plate dilution was prepared in media followed with compound treatment in cells. Retreatment of cells with compound dilutions was performed on Day 4 and assay was terminated on day 8 for SK-MEL-5 cells using CellTiter-Glo and the plate was kept on orbital shaker for 20 minutes at RT. Assay was terminated on day 6 for RERF-LC-A1 without a compound retreatment. Luminescence signal was recorded on VICTOR^3 instrument. Percent inhibition of proliferation was calculated at each concentration and plotted against the compound concentration. EC50 value was calculated using GraphPad software.

SMILES | Percent degradation (at 100 nM) SMARCA2 (SMARCA2) | Percent degradation (at 100 nM) SMARCA4 (SMARCA4) | EC50 (SK-MEL-5 cells; SK-MEL-5, SK-MEL-5 cells) | EC50 (SK-MEL-5 cells; SK-MEL-5 cells)
Cc1ncsc1-c1ccc([C@H](C)NC(=O)[C@@H]2C[C@@H](O)CN2C(=O)[C@@H](NC(=O)CN2CCC(c3ccc(-c4cnnc(-c5cc(F)ccc5O)c4)cc3)CC2)C(C)(C)C)cc1 [Compound 13, (2S,4R)-1-((S)-2-(2-(4-(4-(6-(5-fluoro-2-hydroxyphenyl)pyridazin-4-yl)phenyl)piperidin-1-yl)acetamido)-3,3-dimethylbutanoyl)-4-hydroxy-N-((S)-1-(4-(4-methylthiazol-5-yl)phenyl)ethyl)pyrrolidine-2-carboxamide] | 17% | 0% | > 0.5 µM | 
Cc1ncsc1-c1ccc([C@H](C)NC(=O)[C@@H]2C[C@@H](O)CN2C(=O)[C@@H](NC(=O)CN2CCC(O)(c3ccc(-c4cnnc(-c5ccccc5O)c4)cc3)CC2)C(C)(C)C)cc1 [Compound 32, (2S,4R)-4-hydroxy-1-((S)-2-(2-(4-hydroxy-4-(4-(6-(2-hydroxyphenyl)pyridazin-4-yl)phenyl)piperidin-1-yl)acetamido)-3,3-dimethylbutanoyl)-N-((S)-1-(4-(4-methylthiazol-5-yl)phenyl)ethyl)pyrrolidine-2-carboxamide] | 57% | 0% | > 0.5 µM | 
Cc1ncsc1-c1ccc([C@H](C)NC(=O)[C@@H]2C[C@@H](O)CN2C(=O)[C@@H](NC(=O)CN2CCCC(c3ccc(-c4cnnc(-c5ccccc5O)c4)cc3)C2)C(C)(C)C)cc1 (stereo partly drawn) [Compound 20, (2S,4R)-4-hydroxy-1-((2S)-2-(2-(3-(4-(6-(2-hydroxyphenyl)pyridazin-4-yl)phenyl)piperidin-1-yl)acetamido)-3,3-dimethylbutanoyl)-N-((S)-1-(4-(4-methylthiazol-5-yl)phenyl)ethyl)pyrrolidine-2-carboxamide] | 41% | 0% | 0.25 to 0.5 µM | 
Cc1ncsc1-c1ccc([C@H](C)NC(=O)[C@@H]2C[C@@H](O)CN2C(=O)[C@@H](NC(=O)C2CCN(c3ccc(-c4cnnc(-c5ccccc5O)c4)cc3)CC2)C(C)(C)C)cc1 [Compound 16, N-((S)-1-((2S,4R)-4-hydroxy-2-(((S)-1-(4-(4-methylthiazol-5-yl)phenyl)ethyl)carbamoyl)pyrrolidin-1-yl)-3,3-dimethyl-1-oxobutan-2-yl)-1-(4-(6-(2-hydroxyphenyl)pyridazin-4-yl)phenyl)piperidine-4-carboxamide] | 76% | 0% | < 0.25 µM | 
Cc1ncsc1-c1ccc([C@H](C)NC(=O)[C@@H]2C[C@@H](O)CN2C(=O)[C@@H](NC(=O)C2CCC(c3ccc(-c4cnnc(-c5ccccc5O)c4)cc3)CC2)C(C)(C)C)cc1 (stereo partly drawn) [Compound 18, (2S,4R)-4-hydroxy-1-((S)-2-(4-(4-(6-(2-hydroxyphenyl)pyridazin-4-yl)phenyl)cyclohexane-1-carboxamido)-3,3-dimethylbutanoyl)-N-((S)-1-(4-(4-methylthiazol-5-yl)phenyl)ethyl)pyrrolidine-2-carboxamide] | 95% | 0% | < 0.25 µM | 
Cc1ncsc1-c1ccc([C@H](C)NC(=O)[C@@H]2C[C@@H](O)CN2C(=O)[C@@H](NC(=O)CN2C3CCC2CC(c2ccc(-c4cnnc(-c5ccccc5O)c4)cc2)C3)C(C)(C)C)cc1 (stereo partly drawn) [Compound 25, (2S,4R)-4-hydroxy-1-((2S)-2-(2-(3-(4-(6-(2-hydroxyphenyl)pyridazin-4-yl)phenyl)-8-azabicyclo[3.2.1]octan-8-yl)acetamido)-3,3-dimethylbutanoyl)-N-((S)-1-(4-(4-methylthiazol-5-yl)phenyl)ethyl)pyrrolidine-2-carboxamide] | 75% | 0% | 0.25 to 0.5 µM | 
Cc1ncsc1-c1ccc([C@H](C)NC(=O)[C@@H]2C[C@@H](O)CN2C(=O)[C@@H](NC(=O)CN2CCC(Nc3ccc(-c4cnnc(-c5ccccc5O)c4)cc3)CC2)C(C)(C)C)cc1 [Compound 45, (2S,4R)-4-hydroxy-1-((S)-2-(2-(4-((4-(6-(2-hydroxyphenyl)pyridazin-4-yl)phenyl)amino)piperidin-1-yl)acetamido)-3,3-dimethylbutanoyl)-N-((S)-1-(4-(4-methylthiazol-5-yl)phenyl)ethyl)pyrrolidine-2-carboxamide] | 94% |  |  | < 0.25 µM
Cc1ncsc1-c1ccc([C@H](C)NC(=O)[C@@H]2C[C@@H](O)CN2C(=O)[C@@H](NC(=O)CC2CCC(c3ccc(-c4cnnc(-c5ccccc5O)c4)cc3)CC2)C(C)(C)C)cc1 (stereo partly drawn) [Compound 17, (2S,4R)-4-hydroxy-1-((S)-2-(2-(4-(4-(6-(2-hydroxyphenyl)pyridazin-4-yl)phenyl)cyclohexyl)acetamido)-3,3-dimethylbutanoyl)-N-((S)-1-(4-(4-methylthiazol-5-yl)phenyl)ethyl)pyrrolidine-2-carboxamide] |  |  | > 0.5 µM | 

More lines, main results first:

Percent degradation (at 100 nM) SMARCA2 (SMARCA2) | Percent degradation (at 100 nM) SMARCA4 (SMARCA4) | EC50 (SK-MEL-5 cells; SK-MEL-5, SK-MEL-5 cells) | SMILES | EC50 (SK-MEL-5 cells; SK-MEL-5 cells)
79% | 0% | < 0.25 µM | Cc1ncsc1-c1ccc([C@H](C)NC(=O)[C@@H]2C[C@@H](O)CN2C(=O)[C@@H](NC(=O)C(C)N2CCN(c3ccc(-c4cnnc(-c5ccccc5O)c4)cc3)CC2)C(C)(C)C)cc1 (single isomer, unassigned) [Compound 30] | 
 |  | > 0.5 µM | Cc1ncsc1-c1ccc([C@H](C)NC(=O)[C@@H]2C[C@@H](O)CN2C(=O)[C@@H](NC(=O)CN2CCC(c3ccc(-c4cnnc(-c5ccccc5O)c4)cc3)C2)C(C)(C)C)cc1 (stereo partly drawn) [Compound 22, (2S,4R)-4-hydroxy-1-((2S)-2-(2-(3-(4-(6-(2-hydroxyphenyl)pyridazin-4-yl)phenyl)pyrrolidin-1-yl)acetamido)-3,3-dimethylbutanoyl)-N-((S)-1-(4-(4-methylthiazol-5-yl)phenyl)ethyl)pyrrolidine-2-carboxamide] | 
90% | 19% | < 0.25 µM | Cc1ncsc1-c1ccc([C@H](C)NC(=O)[C@@H]2C[C@@H](O)CN2C(=O)[C@@H](NC(=O)CCCCNc2ccc(-c3cnnc(-c4ccccc4O)c3)cc2)C(C)(C)C)cc1 [Compound 36, (2S,4R)-4-hydroxy-1-((S)-2-(5-((4-(6-(2-hydroxyphenyl)pyridazin-4-yl)phenyl)amino)pentanamido)-3,3-dimethylbutanoyl)-N-((S)-1-(4-(4-methylthiazol-5-yl)phenyl)ethyl)pyrrolidine-2-carboxamide] | 
38% | 0% | 0.25 to 0.5 µM | Cc1ncsc1-c1ccc([C@H](C)NC(=O)[C@@H]2C[C@@H](O)CN2C(=O)[C@@H](NC(=O)C(C)N2CCN(c3ccc(-c4cnnc(-c5ccccc5O)c4)cc3)CC2)C(C)(C)C)cc1 (stereo partly drawn) [Compound 28] | 
 |  | > 0.5 µM | Cc1ncsc1-c1ccc([C@H](C)NC(=O)[C@@H]2C[C@@H](O)CN2C(=O)[C@@H](NC(=O)CN2CCC(c3ccc(-c4cnnc(-c5ccccc5O)c4)cn3)CC2)C(C)(C)C)cc1 [Compound 27, (2S,4R)-4-hydroxy-1-((S)-2-(2-(4-(5-(6-(2-hydroxyphenyl)pyridazin-4-yl)pyridin-2-yl)piperidin-1-yl)acetamido)-3,3-dimethylbutanoyl)-N-((S)-1-(4-(4-methylthiazol-5-yl)phenyl)ethyl)pyrrolidine-2-carboxamide] | 
81% | 58% |  | Cc1ncsc1-c1ccc([C@H](C)NC(=O)[C@@H]2C[C@@H](O)CN2C(=O)[C@@H](NC(=O)CCCCOc2ccc(-c3cnnc(-c4ccccc4O)c3)cc2)C(C)(C)C)cc1 [Compound 34, (2S,4R)-4-hydroxy-1-((S)-2-(5-(4-(6-(2-hydroxyphenyl)pyridazin-4-yl)phenoxy)pentanamido)-3,3-dimethylbutanoyl)-N-((S)-1-(4-(4-methylthiazol-5-yl)phenyl)ethyl)pyrrolidine-2-carboxamide] | 
40% | 0% |  | Cc1ncsc1-c1ccc([C@H](C)NC(=O)[C@@H]2C[C@@H](O)CN2C(=O)[C@@H](NC(=O)C(C)N2CCN(c3ccc(-c4cnnc(-c5ccccc5O)c4)cc3)CC2)C(C)(C)C)cc1 (single isomer, unassigned) [Compound 29] | 
